This is an account of results in patent publication US4212881A, “Streptovaricin C derivatives” (priority 1978, dated 1980).

In data set [1] the target is reverse-transcriptase of mouse Sarcoma virus (Moloney murine leukemia virus, UniProt P03355). In words: Effect for inhibiting reverse-transcriptase of mouse Sarcoma virus. As to conditions: for inhibition at 300 µg/mL: read-out: Percent inhibition (%); for Percent inhibition (%): 300 μg/ml, virus protein (MLV-moloney), 37° C. 60 minutes. The format is biochemical. Here is the method: Effect for inhibiting reverse-transcriptase of mouse Sarcoma virus.
The effect for inhibition was determined as follows:
Methanol solution containing each active ingredient at a concentration of 6 mg/ml.
Solution containing 240 μg of virus protein (MLV-moloney) in 1 ml of a buffer solution of 20 mM-tris-hydrochloric acid (pH 7.8), 0.1 M-sodium chloride and 1 mM of dithiotersitol (DTT).
Reaction medium containing 46 mM tris-hydrochloric acid (pH 8.1) 92 mM potassium chloride, 15.4 mM manganese chloride, 0.77 mM-dATP, 0.77 mM-dCTP, 0.77 mM-dGTP, 0.23 μM-3H-TTP (50 ci/mM), 7.7 mM-DTT and 0.038% NP-40.
The reaction mixture was prepared by sequentially admixing (a) 5 μl, with (b) 30 μl and (c) 65 μl and the mixture was thoroughly mixed and kept at 0° C. for 5 minutes. Then, the reaction mixture was kept at 37° C. for 60 minutes and 1 ml of cold 10% trichloroacetic acid solution was added to the reaction mixture to stop the reaction. The mixture was kept at 0° C. for 20 minutes and an insoluble components were collected on each Whatman's paper GF/c (diameter of 2.5 cm) and washed with 5 ml of cold 5% trichloroacetic acid. The residue was dried in an oven at 80° C. and charged in a viral bottle containing 10 ml of toluene solution containing scintillator PPO-POPOP, and radioactivity was measured by a scintillation spectrometer.

In the next data set the test system is mouse. In words: Acute toxicity (LD50) in mouse. In kind it is in vivo. As for the experimental part: Acute toxicity of the novel streptovaricin C derivatives (I) are remarkably low level. For example, 19-O-methyl compound (I) has LD50 to mouse of more than 1000 mg/kg in intramuscular injection and more than 3000 mg/kg in oral dose.

Consider `CCCCCCOc1c(C)c(O)c2c3c1C(=O)C(C)=CC(C)(O)C(O)C(C)C(O)C1C(=O)OC(C(C)C=CC=C(C)C(=O)NC(=C(C)C3=O)C2=O)C(C)C1O` (stereo not drawn) [Example 8], for which, in data set [1], the inhibition (as a rule, the relative decrease from the control value, in per cent) at 300 µg/mL came out at 60%.

Turning to `CCCCOc1c(C)c(O)c2c3c1C(=O)C(C)=CC(C)(O)C(O)C(C)C(O)C1C(=O)OC(C(C)C=CC=C(C)C(=O)NC(=C(C)C3=O)C2=O)C(C)C1O` (stereo not drawn) [Example 6], the inhibition at 300 µg/mL in data set [1] worked out at 78%.

With `CC1=CC=CC(C)C2OC(=O)C(C(O)C2C)C(O)C(C)C(O)C(C)(O)C=C(C)C(=O)c2c(OCC(=O)c3ccccc3)c(C)c(O)c3c2C(=O)C(C)=C(NC1=O)C3=O` (stereo not drawn) [Example 30], in data set [1], the inhibition at 300 µg/mL was determined as 50%.

For “19-O-methyl-atropisodamavaricin Fc (containing 19-O-methyl damavaricin Fc) [Example 1]”, the “Percent inhibition (%)” value in data set [1] worked out at 41%. The values for the LD50 entry in the data set on mouse (intramuscular injection) and in the data set with mouse (oral dose) were “more than 1000 mg/kg” and “more than 3000 mg/kg”, respectively.

For `CCCOc1c(C)c(O)c2c3c1C(=O)C(C)=CC(C)(O)C(O)C(C)C(O)C1C(=O)OC(C(C)C=CC=C(C)C(=O)NC(=C(C)C3=O)C2=O)C(C)C1O` (stereo not drawn) [Example 5], in data set [1], the inhibition at 300 µg/mL came out at 52%.

Turning to `CC1=CC=CC(C)C2OC(=O)C(C(O)C2C)C(O)C(C)C(O)C(C)(O)C=C(C)C(=O)c2c(OC3CCCCC3)c(C)c(O)c3c2C(=O)C(C)=C(NC1=O)C3=O` (stereo not drawn) [Example 22], in data set [1], the inhibition at 300 µg/mL turned out to be 45%.

Turning to `CCCCCCCCOc1c(C)c(O)c2c3c1C(=O)C(C)=CC(C)(O)C(O)C(C)C(O)C1C(=O)OC(C(C)C=CC=C(C)C(=O)NC(=C(C)C3=O)C2=O)C(C)C1O` (stereo not drawn) [Example 10], in data set [1], the inhibition at 300 µg/mL is 41%.

In the case of “19-O-benzyl atropisodamavaricin Fc (containing 19-O-benzyl damavaricin Fc) [Example 2]”, the “Percent inhibition (%)” value in data set [1] was determined as 67%.

Regarding `CCCCCCCCCCCOc1c(C)c(O)c2c3c1C(=O)C(C)=CC(C)(O)C(O)C(C)C(O)C1C(=O)OC(C(C)C=CC=C(C)C(=O)NC(=C(C)C3=O)C2=O)C(C)C1O` (stereo not drawn) [Example 13], the inhibition at 300 µg/mL in data set [1] turned out to be 78%.

For the compound `CC(=O)COc1c(C)c(O)c2c3c1C(=O)C(C)=CC(C)(O)C(O)C(C)C(O)C1C(=O)OC(C(C)C=CC=C(C)C(=O)NC(=C(C)C3=O)C2=O)C(C)C1O` (stereo not drawn) [Example 24], the inhibition at 300 µg/mL in data set [1] stood at 58%.

In the case of `CCOc1c(C)c(O)c2c3c1C(=O)C(C)=CC(C)(O)C(O)C(C)C(O)C1C(=O)OC(C(C)C=CC=C(C)C(=O)NC(=C(C)C3=O)C2=O)C(C)C1O` (stereo not drawn) [Example 4], in data set [1], the inhibition at 300 µg/mL amounted to 60%.

In the case of `C=CCOc1c(C)c(O)c2c3c1C(=O)C(C)=CC(C)(O)C(O)C(C)C(O)C1C(=O)OC(C(C)C=CC=C(C)C(=O)NC(=C(C)C3=O)C2=O)C(C)C1O` (stereo not drawn) [Example 20], the inhibition at 300 µg/mL in data set [1] worked out at 65%.

With `CCCCCOc1c(C)c(O)c2c3c1C(=O)C(C)=CC(C)(O)C(O)C(C)C(O)C1C(=O)OC(C(C)C=CC=C(C)C(=O)NC(=C(C)C3=O)C2=O)C(C)C1O` (stereo not drawn) [Example 7], the inhibition at 300 µg/mL in data set [1] was determined as 52%.
